Results reported in patent publication US20100092549A1, “Dosage Form Containing Two or More Active Pharmaceutical Ingredients in Different Physical Forms” (priority 2007, published 2010).
Structures can show the parent of a compound that is named as a salt.

Assay: Related substance testing by HPLC on interaction samples after storage
Format: physicochemical
[1] = 40/75: incubator 40° C./75% RH for 6 days

Description: The APIs alone and two initial, conventional finished dosage forms were analysed under three different storage conditions, ie. cold room storage, kept in an oven at 60° C. for 7 days and stored in an incubator held at 40° C./75% RH for 6 days. The mixtures of one or both APIs with an excipient were analysed under two different storage conditions, ie. kept in an oven at 60° C. for 7 days and stored in an incubator held at 40° C./75% RH for 6 days.
The list of samples are as follows: • Fluoxetine HCl alone • Olanzapine alone • Fluoxetine HCl/Olanzapine Capsules • Fluoxetine HCl+Microcrystalline cellulose • Fluoxetine HCl+Pregelatinised maize starch • Fluoxetine HCl+Maize starch • Fluoxetine HCl+Magnesium stearate • Fluoxetine HCl+Olanzapine • Fluoxetine HCl+Olanzapine+Microcrystalline cellulose • Fluoxetine HCl+Olanzapine+Pregelatinised maize starch • Fluoxetine HCl+Olanzapine+Maize starch • Fluoxetine HCl+Olanzapine+Magnesium stearate • Olanzapine Tablets • Olanzapine+Lactose monohydrate • Olanzapine+Microcrystalline cellulose • Olanzapine+Maize starch • Olanzapine+Pregelatinised maize starch • Olanzapine+Crospovidone • Olanzapine+Magnesium stearate • Olanzapine+Opadry® II coating ingredients
The samples were analysed after the allotted period of time and the level of known and unknown related substances were determined by HPLC.

Q: With `CNCCC(Oc1ccc(C(F)(F)F)cc1)c1ccccc1` (stereo not drawn) [Fluox API, Fluoxetine HCl] as the compound, how does the “Impurity 1 (unknown related substance)” value [1] read?
A: 0.041

Q: And the “Impurity 2 (unknown related substance)” value [1]?
A: 0.069

Q: What about the “Impurity 1 (unknown related substance)” value (CR: cold room storage) of the same compound?
A: 0.034

Q: And the “Impurity 2 (unknown related substance)” value (CR: cold room storage)?
A: 0.068

Q: And the “Impurity 1 (unknown related substance)” value (Oven: 60° C. for 7 days)?
A: 0.039

Q: And the “Impurity 2 (unknown related substance)” value (Oven: 60° C. for 7 days)?
A: 0.067
